# Results taken from US20250339385A1, “TOPICAL FORMULATION OF DIMETHYLCURCUMIN” (ANNJI PHARMACEUTICAL CO., LTD., priority 2021, published 2025).
# Experiment: Solubility of API (Formula I) in aqueous system / solvents
# Assay type: physicochemical
# Description: When the API of Formula I is in the aqueous system, it forms crystals and precipitates out of solution. To investigate a compatible matrix that allows greater Formula I solubility, various systems containing Formula I were stored at room temperature for 24 hours and were examined under a polarized light microscope to observe the presence or absence of Formula I crystal precipitation.
substance,measurement,setting,value
dimethylcurcumin [Formula I],solubility of API in aqueous phase (aqueous system),aqueous system,practically insoluble
same,solubility of API in diethylene glycol monoethyl ether,diethylene glycol monoethyl ether,good solubility
